Assay results taken from PMC5743070 (The Journal of Biological Chemistry, 2017).
Where two headings read alike, the source gives them in different places.

Molecular target: T1, TTD (UHRF1_121–286) (Homo sapiens, UniProt Q96T88)
T1 construct: UHRF1_121–286 corresponding to the TTD; made in house
T1 sequence (Q96T88 121-286): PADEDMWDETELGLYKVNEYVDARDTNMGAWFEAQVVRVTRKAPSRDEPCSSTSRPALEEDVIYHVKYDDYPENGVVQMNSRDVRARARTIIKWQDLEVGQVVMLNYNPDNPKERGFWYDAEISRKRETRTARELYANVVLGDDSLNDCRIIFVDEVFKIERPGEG
Assay: (1H-15N) HSQC NMR titration of TTD
Assay type: binding
Details: for Kd: HSQC titration, ~250 μM TTD, 5% DMSO, pH 7.5, 25 °C
Source text: We designed a fragment library containing 2,040 compounds that was initially screened against isolated TTD (UHRF1_121–286) using a fluorescence polarization (FP) assay that tracked the displacement of a N-terminally tagged H3K9me3 peptide (H3K9me3(1–25)). From this screen, eight putative TTD-binding hits were identified. […] Because of limited commercial availability of the tricyclic amine, we focused only on BPC. The binding of this compound occurs close to (or within) the Arg^296-binding pocket; we observe significant perturbation of Trp^238 and Phe^278 resonances that form part of the pocket, and in Gly^236, which is directly adjacent to it (Fig. 4A and supplemental Fig. S5). We also see chemical shift changes in non-surface exposed residues that are close to or are in contact with the groove.
NMR samples were buffered in 20 mM sodium phosphate (pH 7.5), 150 mM NaCl, 5 mM DTT, 5 mM β-mercaptoethanol, 2 mM TCEP, and 10 μM ZnSO4. The protein concentration was between 200 and 300 μM for all samples. The data were collected at 25 °C on Bruker spectrometers equipped with cryoprobes and operating at 500, 600, or 800 MHz. The assignment of backbone TTD–PHD resonances was accomplished using the ABACUS method ([29]) for which standard backbone and ^15N-edited NOESY spectra were collected using ^15N/^13C/^2H- or ^15N/^13C-labeled protein. All 3D experiments were acquired using non-uniform sampling and processed using the software MDDGUI ([30]) or qMDD ([31]). ^15N-Labeled TTD–PHD was used to acquire ^15N T1 and T2 relaxation and ^1H-^15N heteronuclear NOE measurements ([32]) collected using standard Bruker pulse schemes in an interleaved manner. For T1 measurements, the variable delay was set to 0.1, 0.4, 0.8, 1.5, 2.0, 2.5, 3.5, and 5 s. For T2 measurements, the variable delay was set to 16, 32, 48, 64, 80, 96, 128, and 144 ms. The D1 was 3 s for all experiments. Reported values were the average from two measurements. All spectra were processed using NMRPipe ([33]) and analyzed with SPARKY ([34]).
Figure S5 (related to Fig. 4)
Binding of BPC in the groove of TTD. […]
labeled (at the N-terminus) H3K9me3(1-25) peptide, (B) ITC, and (C) DSF. (D) KD estimates of BPC bind-ing based on I211 and Y239 amide peak movement (where Δ(ppm) = ((ΔδHN)2 + (ΔδN/6.5)2 )1⁄2) in (1H-15N) HSQC spectra when the TTD is titrated with BPC. […]
as a function of TTD sequence resulting from BPC (blue) or PBR peptide (red) binding. (F) HSQC overlays […]
ment:protein), and PBR peptide ratios (bottom spectrum - from 1:1 to 5:1 peptide:protein). The protein con-centration was ~250 µM for all NMR experiments, and the DMSO concentration was 5% for NMR titrations […]
(1 picture or pasted object on this page, not shown here)

SMILES: N=C(N)N1CCC(Cc2ccccc2)CC1 [BPC, 4-benzylpiperidine-1-carboximidamide]
- binding site on TTD by amide peak movement ((1H-15N) HSQC spectra of TTD): occurs in the groove
- Kd (residue I211, read-out: KD estimate from I211 amide peak movement): 78 µM
- Kd (residue Y239, read-out: KD estimate from Y239 amide peak movement): 76 µM
